Source: US9765058B2, “Substituted benzylpyrazoles” (BAYER PHARMA AKTIENGESELLSCHAFT, priority 2013, dated 2017)
Where two headings read alike, the source gives them in different places.

Experiments:
HeLa cell line = assay: Proliferation assay (crystal violet); details: Homo sapiens, 96 h, read-out: Biological Assay 2: Proliferation assay (HeLa cell line) median IC50
Experimental: Cultivated tumor cells (cells were ordered from ATCC, except HeLa-MaTu and HeLa-MaTu-ADR, which were ordered from EPO-GmbH, Berlin) were plated at a density of 1000 to 5000 cells/well, depending on the growth rate of the respective cell line, in a 96-well multititer plate in 200 μL of their respective growth medium supplemented 10% fetal calf serum. After 24 hours, the cells of one plate (zero-point plate) were stained with crystal violet (see below), while the medium of the other plates was replaced by fresh culture medium (200 μL), to which the test substances were added in various concentrations (0 μM, as well as in the range of 0.001-10 μM; the final concentration of the solvent dimethyl sulfoxide was 0.5%). The cells were incubated for 4 days in the presence of test substances. Cell proliferation was determined by staining the cells with crystal violet: the cells were fixed by adding 20 μL/measuring point of an 11% glutaric aldehyde solution for 15 minutes at room temperature. After three washing cycles of the fixed cells with water, the plates were dried at room temperature. The cells were stained by adding 100 μL/measuring point of a 0.1% crystal violet solution (pH 3.0). After three washing cycles of the stained cells with water, the plates were dried at room temperature. The dye was dissolved by adding 100 μl/measuring point of a 10% acetic acid solution. Absorbtion was determined by photometry at a wavelength of 595 nm. The change of cell number, in percent, was calculated by normalization of the measured values to the absorbtion values of the zero-point plate (=0%) and the absorbtion of the untreated (0 μm) cells (=100%). The IC50 values were determined by means of a 4 parameter fit.

[1] = molecular target: catalytic domain of human Bub1 (amino acids 704-1085) (Homo sapiens (Human), UniProt O43683); assay: Bub1 kinase assay (TR-FRET); format: biochemical; details: read-out: Biological Assay 1: Bub1 kinase assay median IC50
Experimental: The stopped reaction mixture was further incubated 1 h at 22° C. in order to allow the formation of complexes between peptides and detection reagents. Subsequently, the amount of product was evaluated by measurement of the resonance energy transfer from the Eu-chelate-antibody complex recognizing the Phosphoserine residue to the streptavidin-XL665 bound to the biotin moiety of the peptide. […] IC50 values were calculated by fitting the normalized inhibition data to a 4-parameter logistic equation (Minimum, Maximum, IC50, Hill; Y=Max+(Min−Max)/(1+(X/IC50)Hill)).

[2] = TR-FRET, 10 μM ATP, 1 μM peptide substrate

Question: CCOc1cc(F)c(Cn2nc(-c3nccc(Nc4ccncc4C(=O)NC)n3)c(Cl)c2C2CC2)c(F)c1 [Example 2-1-1, 4-({2-[4-chloro-5-cyclopropyl-1-(4-ethoxy-2,6-difluorobenzyl)-1H-pyrazol-3-yl]pyrimidin-4-yl}amino)-N-methylnicotinamide] was tested. Which IC50 (HeLa cell line) did it give?
Answer: The IC50 was greater than 10000 nM.

Question: And the IC50 [1, 2]?
Answer: Its IC50 is 4.7 nM.

Question: What does the source list for CCOc1cc(F)c(Cn2nc(-c3nccc(Nc4ccncc4C(N)=O)n3)c(Cl)c2C2CC2)c(F)c1 [Example 2-1-2, 4-({2-[4-chloro-5-cyclopropyl-1-(4-ethoxy-2,6-difluorobenzyl)-1H-pyrazol-3-yl]pyrimidin-4-yl}amino)nicotinamide]?
Answer: IC50 (HeLa cell line): 8600 nM; IC50 [1, 2]: 8.1 nM

Question: For CCOc1cc(F)c(Cn2nc(-c3nccc(Nc4ccncc4)n3)c(Cl)c2C2CC2)c(F)c1 [Example 2-2-1, 2-[4-chloro-5-cyclopropyl-1-(4-ethoxy-2,6-difluorobenzyl)-1H-pyrazol-3-yl]-N-(pyridin-4-yl)pyrimidin-4-amine], which IC50 (HeLa cell line) is on record?
Answer: The IC50 was 8800 nM.

Question: What about the IC50 [1] of the same compound?
Answer: Its IC50 is 5.6 nM.

Question: How did the IC50 (HeLa cell line) turn out when CCOC(=O)c1cnccc1Nc1ccnc(-c2nn(Cc3c(F)cc(OCC)cc3F)c(C3CC3)c2Cl)n1 [Example 2-2-2, ethyl 4-({2-[4-chloro-5-cyclopropyl-1-(4-ethoxy-2,6-difluorobenzyl)-1H-pyrazol-3-yl]pyrimidin-4-yl}amino)nicotinate] was run?
Answer: The IC50 was 9200 nM.

Question: What about the IC50 [1, 2] of the same compound?
Answer: Its IC50 is 37 nM.

Question: What does the source list for CCOc1cc(F)c(Cn2nc(-c3ncc(OC)c(Nc4ccncc4)n3)c(Cl)c2C)c(F)c1 [Example 2-2-3, 2-[4-chloro-1-(4-ethoxy-2,6-difluorobenzyl)-5-methyl-1H-pyrazol-3-yl]-5-methoxy-N-(pyridin-4-yl)pyrimidin-4-amine]?
Answer: IC50 (HeLa cell line): 3800 nM; IC50 [1, 2]: 10 nM

Question: Which results are given for CCOc1cc(F)c(Cn2nc(-c3ncc(OC)c(Nc4ccncc4)n3)c(Br)c2C)c(F)c1 [Example 2-2-4, 2-[4-bromo-1-(4-ethoxy-2,6-difluorobenzyl)-5-methyl-1H-pyrazol-3-yl]-5-methoxy-N-(pyridin-4-yl)pyrimidin-4-amine]?
Answer: IC50 (HeLa cell line): 3300 nM; IC50 [1, 2]: 24 nM

Question: What does the source list for CCOc1cc(F)c(Cn2cc(Cl)c(-c3ncc(OC)c(Nc4ccncc4)n3)n2)c(F)c1 [Example 2-2-5, 2-[4-chloro-1-(4-ethoxy-2,6-difluorobenzyl)-1H-pyrazol-3-yl]-5-methoxy-N-(pyridin-4-yl)pyrimidin-4-amine]?
Answer: IC50 (HeLa cell line): 6800 nM; IC50 [1, 2]: 33 nM

Question: For CCOc1cc(F)c(Cn2nc(-c3ncc(OC)c(Nc4ccncc4)n3)c(F)c2C)c(F)c1 [Example 2-2-6, 2-[1-(4-ethoxy-2,6-difluorobenzyl)-4-fluoro-5-methyl-1H-pyrazol-3-yl]-5-methoxy-N-(pyridin-4-yl)pyrimidin-4-amine], which IC50 (HeLa cell line) is on record?
Answer: The IC50 was 4500 nM.

Question: What about the IC50 [1, 2] of the same compound?
Answer: The IC50 was 41 nM.

Question: With CCOc1cc(F)c(Cn2nc(-c3ncc(OC)c(Nc4ccncc4)n3)c(C#N)c2C)c(F)c1 [Example 2-2-8, 1-(4-ethoxy-2,6-difluorobenzyl)-3-[5-methoxy-4-(pyridin-4-ylamino)pyrimidin-2-yl]-5-methyl-1H-pyrazole-4-carbonitrile] as the compound, how does the IC50 [1, 2] read?
Answer: The IC50 was 3200 nM.

Question: Which IC50 [1, 2] does the source give for CCOC(=O)c1cnccc1Nc1nc(-c2nn(Cc3c(F)cc(OCC)cc3F)c(C)c2F)ncc1OC [Example 2-2-9, ethyl 4-({2-[1-(4-ethoxy-2,6-difluorobenzyl)-4-fluoro-5-methyl-1H-pyrazol-3-yl]-5-methoxypyrimidin-4-yl}amino)nicotinate] here?
Answer: The IC50 was 40 nM.

Question: Which results are given for CCOc1cc(F)c(Cn2cc(N(C)C)c(-c3ncc(OC)c(Nc4ccncc4)n3)n2)c(F)c1 [Example 2-2-10, 2-[4-(dimethylamino)-1-(4-ethoxy-2,6-difluorobenzyl)-1H-pyrazol-3-yl]-5-methoxy-N-(pyridin-4-yl)pyrimidin-4-amine]?
Answer: IC50 (HeLa cell line): > 10000 nM; IC50 [1, 2]: 250 nM

Question: For CCOc1cc(F)c(Cn2nc(-c3ncc(OC)c(Nc4ccncc4)n3)c(C)c2Br)c(F)c1 [Example 2-2-11, 2-[5-bromo-1-(4-ethoxy-2,6-difluorobenzyl)-4-methyl-1H-pyrazol-3-yl]-5-methoxy-N-(pyridin-4-yl)pyrimidin-4-amine], which IC50 (HeLa cell line) is on record?
Answer: The IC50 was 1300 nM.

Question: And the IC50 [1, 2]?
Answer: The IC50 was 13 nM.

Question: How did the IC50 (HeLa cell line) turn out when CCOc1cc(F)c(Cn2nc(-c3ncc(OC)c(Nc4ccncc4)n3)c(C)c2C#N)c(F)c1 [Example 2-2-12, 1-(4-ethoxy-2,6-difluorobenzyl)-3-[5-methoxy-4-(pyridin-4-ylamino)pyrimidin-2-yl]-4-methyl-1H-pyrazole-5-carbonitrile] was run?
Answer: Its IC50 is greater than 10000 nM.

Question: And the IC50 [1, 2]?
Answer: Its IC50 is 100 nM.

Question: CCOc1cc(F)c(Cn2nc(-c3nccc(Nc4ccncc4C(=O)O)n3)c(Cl)c2C2CC2)c(F)c1 [Example 2-3-1, 4-({2-[4-chloro-5-cyclopropyl-1-(4-ethoxy-2,6-difluorobenzyl)-1H-pyrazol-3-yl]pyrimidin-4-yl}amino)nicotinic acid] was tested. Which IC50 [1] did it give?
Answer: The IC50 was 11 nM.

Question: With CCOc1cc(F)c(Cn2nc(-c3nccc(Nc4ccncc4C(=O)NCCO)n3)c(Cl)c2C2CC2)c(F)c1 [Example 2-4-1, 4-({2-[4-chloro-5-cyclopropyl-1-(4-ethoxy-2,6-difluorobenzyl)-1H-pyrazol-3-yl]pyrimidin-4-yl}amino)-N-(2-hydroxyethyl)nicotinamide] as the compound, how does the IC50 (HeLa cell line) read?
Answer: The IC50 was greater than 10000 nM.

Question: And the IC50 [1]?
Answer: The IC50 was 54 nM.

Question: Which results are given for CCOc1cc(F)c(Cn2cc(Cl)c(-c3ncc(OC)c(Nc4ccncc4C(=O)NC)n3)n2)c(F)c1 [Example 2-4-2, 4-({2-[4-chloro-1-(4-ethoxy-2,6-difluorobenzyl)-1H-pyrazol-3-yl]-5-methoxypyrimidin-4-yl}amino)-N-methylnicotinamide]?
Answer: IC50 (HeLa cell line): > 10000 nM; IC50 [1, 2]: 13 nM

Question: With CCOc1cc(F)c(Cn2cc(Cl)c(-c3ncc(OC)c(Nc4ccncc4C(N)=O)n3)n2)c(F)c1 [Example 2-4-3, 4-({2-[4-chloro-1-(4-ethoxy-2,6-difluorobenzyl)-1H-pyrazol-3-yl]-5-methoxypyrimidin-4-yl}amino)nicotinamide] as the compound, how does the IC50 (HeLa cell line) read?
Answer: The IC50 was greater than 10000 nM.

Question: What about the IC50 [1, 2] of the same compound?
Answer: Its IC50 is 7.4 nM.

Question: For CCOc1cc(F)c(Cn2nc(-c3ncc(OC)c(Nc4ccncc4C(=O)NC)n3)c(F)c2C)c(F)c1 [Example 2-4-4, 4-({2-[1-(4-ethoxy-2,6-difluorobenzyl)-4-fluoro-5-methyl-1H-pyrazol-3-yl]-5-methoxypyrimidin-4-yl}amino)-N-methylnicotinamide], which IC50 (HeLa cell line) is on record?
Answer: Its IC50 is greater than 10000 nM.

Question: What about the IC50 [1, 2] of the same compound?
Answer: Its IC50 is 10 nM.

Question: What does the source list for CCOc1cc(F)c(Cn2nc(-c3ncc(OC)c(Nc4ccncc4C(N)=O)n3)c(F)c2C)c(F)c1 [Example 2-4-5, 4-({2-[1-(4-ethoxy-2,6-difluorobenzyl)-4-fluoro-5-methyl-1H-pyrazol-3-yl]-5-methoxypyrimidin-4-yl}amino)pyridine-3-carboxamide]?
Answer: IC50 (HeLa cell line): > 10000 nM; IC50 [1, 2]: 11 nM
